From patent publication US9161927B2, “Drug combinations containing PDE4 inhibitors and NSAIDs” (Boehringer Ingelheim International GmbH, priority 2009, dated 2015) come the findings set out here.

Series [1] concerns male Wistar rats. Put plainly: Experiment 4: roflumilast-mediated diarrhoea and mesentery histopathology in rats, with or without SC-560 or lumiracoxib. In kind it is in vivo, rat. The settings on record: affected animals out of animals examined; p.o. for four days, 95 hours after t0; roflumilast 10 mg/kg at 1300, SC-560 or lumiracoxib 2 mg/kg at 0800 and 1700.
Method: (§1) Six male Wistar rats in each group were treated for four days with the following substances (all substances are given p.o.=orally):
(§2) Group 1 (“control group”): Six male Wistar rats were given a daily dose of 0.5% Natrosol (placebo) at the times 0800, 1300 and 1700 hours.
(§3) Group 2 (“roflumilast group”): Six male Wistar rats were given a daily dose of 0.5% Natrosol (placebo) at 0800 and 1700 hours and 10 mg/kg roflumilast (PDE4 inhibitor) at 1300 hours.
(§4) Group 6 (“lumiracoxib group”): Six male Wistar rats were given a daily dose of 2 mg/kg lumiracoxib (NSAID, selective for COX-2) at the times 0800 and 1700 hours and 0.5% Natrosol at 1300 hours.
(§5) At the end of the experiment (95 hours after t0 (=the time of the first administration on day 1, 0800 hours)) the rats from the individual groups were examined phenotypically and histopathologically for the presence of multifocal perivascular mononuclear infiltration (=inflammation parameter) in the mesentery and for the proliferation of fibroblasts in the mesentery. In addition, the occurrence of diarrhoea in the rats from the different groups was noted.
For series [2], the system named is male Wistar rats. Put plainly: Experiment 3: roflumilast-mediated weight loss, leukocytosis and neutrophilia in rats, with or without SC-560 or lumiracoxib. In kind it is in vivo, rat. The settings on record: for leukocytosis (white blood cells, FIG. 2B on the left) / neutrophilia (neutrophils in % of white blood cells, FIG. 2B on the right): 95 hours after t0; for leukocytosis (white blood cells, FIG. 2B on the left) / neutrophilia (neutrophils in % of white blood cells, FIG. 2B on the right) / weight loss (body weight as percentage change from t0, FIG. 2A): p.o. for four days, roflumilast 10 mg/kg at 1300, SC-560 or lumiracoxib 2 mg/kg at 0800 and 1700, compared with control group.
Method: as §1, §2, §3, §4
The average±standard deviation of the body weights at time t0 was 306±11 g.
At the end of the experiment (95 hours after t0 (=the time of the first administration on day 1, 0800 hours)) the proportion of white blood cells (×1000 cells/μl blood, FIG. 2B, left-hand Figure) and the proportion of neutrophils (in % of white blood cells, FIG. 2B, right-hand Figure) were determined from the blood of 5 of the rats from the individual groups.

Series [3] relates to male Wistar rats. In kind it is in vivo. The following applies: affected animals out of animals examined; p.o. for four days, 95 hours after t0; roflumilast 10 mg/kg at 1300, diclofenac 1 mg/kg at 0800 and 1700.
Method: as §1, §2, §3
(§6) Group 3 (“roflumilast+diclofenac group”): Six male Wistar rats were given a daily dose of 1 mg/kg diclofenac (NSAID) at the times 0800 and 1700 hours and 10 mg/kg roflumilast (PDE4 inhibitor) at 1300 hours.
(§7) Group 4 (“diclofenac group”): Six male Wistar rats were given a daily dose of 1 mg/kg diclofenac (NSAID) at the times 0800 and 1700 hours and 0.5% Natrosol (placebo) at 1300 hours.
(§8) For pharmacokinetic analysis (determining the plasma levels of the substances) on day 4 one rat from each group was used; these rats were no longer available for other parameters under investigation.
as §5
The test system of series [4] is male Wistar rats. Put plainly: Experiment 1: roflumilast-mediated weight loss, leukocytosis and neutrophilia in rats, with or without diclofenac.
Method: as §1, §2, §3, §6, §7, §8
The average±standard deviation of the body weights at time t0 was 355±17 g.
At the end of the experiment (95 hours after t0 (=the time of the first administration on day 1, 0800)) the proportion of white blood cells (×1000 cells/μl blood, FIG. 1B, left-hand Figure) and the proportion of neutrophils (in % of white blood cells, FIG. 1B, right-hand Figure) were determined from the blood of 4 or 5 of the rats from the individual groups.
Setting [5] is: NSAID 2 mg/kg at 0800 and 1700 co-administered with roflumilast 10 mg/kg at 1300, p.o. for four days.
[6] abbreviates: 95 hours after t0, p.o. for four days, roflumilast 10 mg/kg at 1300, diclofenac 1 mg/kg at 0800 and 1700, compared with control group.

Molecules are shown by their SMILES. Read-outs that look alike come from different tables or passages of the source.

For `COc1ccc(-n2nc(C(F)(F)F)cc2-c2ccc(Cl)cc2)cc1` [SC-560], the Diarrhoea in series [1] is on record as 0/6. Moreover, in series [2], the “leukocytosis (white blood cells, FIG. 2B on the left)” value is “very similar to the control groups”; the “neutrophilia (neutrophils in % of white blood cells, FIG. 2B on the right)” value is listed as “very similar to the control groups”; the “weight loss (body weight as percentage change from t0, FIG. 2A)” value was “very similar to the control groups”. For the same molecule, in series [2] (setting [5]), the “protective effect on roflumilast-mediated leukocytosis” value is reported as “absolutely no protective effect”, the “protective effect on roflumilast-mediated neutrophilia” value is on record as “absolutely no protective effect” and the “protective effect on roflumilast-mediated weight loss” value is listed as “absolutely no protective effect”.
As for `O=C(O)Cc1ccccc1Nc1c(Cl)cccc1Cl` [diclofenac], in series [3], the Diarrhoea is 0/6, the “Mesentery: Proliferation of fibroblasts” value is 0/5 and the “Mesentery: multifocal perivascular mononuclear infiltration (=inflammation parameter)” value (“Mesentery … (=inflammation parameter)” for short) was 0/5. Besides, in series [4] (setting [6]), the “leukocytosis (white blood cells, FIG. 1B on the left)” value is “very similar to the control groups” and the “neutrophilia (neutrophils in % of white blood cells, FIG. 1B on the right)” value is “very similar to the control groups”. For the same molecule, the “weight loss (body weight as percentage change from t0, FIG. 1A)” value in series [4] (p.o. for four days, roflumilast 10 mg/kg at 1300, diclofenac 1 mg/kg at 0800 and 1700, compared with control group) was “very similar to the control groups”.
For `Cc1ccc(Nc2c(F)cccc2Cl)c(CC(=O)O)c1` [lumiracoxib], in series [1], the Diarrhoea was 0/6, the “Mesentery: Proliferation of fibroblasts” value is recorded as 0/5 and the “Mesentery … (=inflammation parameter)” value is given as 0/5. Moreover, in series [2], the “leukocytosis (white blood cells, FIG. 2B on the left)” value is given as “very similar to the control groups”; the “neutrophilia (neutrophils in % of white blood cells, FIG. 2B on the right)” value is given as “very similar to the control groups”; the “weight loss (body weight as percentage change from t0, FIG. 2A)” value is recorded as “very similar to the control groups”.
As for `O=C(Nc1c(Cl)cncc1Cl)c1ccc(OC(F)F)c(OCC2CC2)c1` [roflumilast], in series [1], the Diarrhoea is 2/6, the “Mesentery: Proliferation of fibroblasts” value is on record as 5/5 and the “Mesentery … (=inflammation parameter)” value was 5/5. In addition, in series [3], the Diarrhoea is recorded as 5/6, the “Mesentery: Proliferation of fibroblasts” value is recorded as 4/4 and the “Mesentery … (=inflammation parameter)” value is 4/4. For the same molecule, in series [4] (group of six rats, roflumilast 10 mg/kg p.o. daily), the “rats which died between day 4 and day 5 of the experiment” value is listed as “one rat”. Further, in series [2], the “leukocytosis (white blood cells, FIG. 2B on the left)” value was “observed”; the “neutrophilia (neutrophils in % of white blood cells, FIG. 2B on the right)” value is reported as “observed”; the “weight loss (body weight as percentage change from t0, FIG. 2A)” value is “observed”.
